Test results published in patent US9187467B2, “2-phenyl benzothiazole linked imidazole compounds as potential anticancer agents and process for the preparation thereof” (Council of Scientific and Industrial Research, priority 2012, dated 2015).

Legend:
IGROV1 = test: SRB anticancer assay, ovarian; assay type: cell-based, human; conditions: Homo sapiens, IGROV-1; IGROV1, 48 h
BT-549 = test: SRB anticancer assay, breast; assay type: cell-based, human; design: Log10GI50: unit not given here
U251 = test: SRB anticancer assay, CNS; assay type: cell-based, human; design: Log10GI50: unit not given here; conditions: U251; present compounds
UO-31 = test: SRB anticancer assay, renal; assay type: cell-based, human; design: Log10GI50: unit not given here
PC-3 = test: SRB anticancer assay, prostate; assay type: cell-based, human; design: Log10GI50: unit not given here
NCI-H226 = test: SRB anticancer assay, non-small lung; assay type: cell-based, human; conditions: Homo sapiens, NCI-H226, 48 h
[1] = test system: MCF-7 (Breast carcinoma) cells; test: Cell cycle distribution by flow cytometry (FACS); assay type: cell-based; conditions: MCF-7 cells, 2 μM, 24h
Method in brief: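 MCF-7 cells treated with compound at 2 μM for 24h, DMSO (0.25%) as control. Cell cycle distribution read by flow cytometry.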

HL-60 (TB) = test: SRB anticancer assay, leukemia; assay type: cell-based, human; design: Log10GI50: unit not given here
UACC-62 = test: SRB anticancer assay, melanoma; assay type: cell-based, human
T-47D = test: SRB anticancer assay, breast; assay type: cell-based; conditions: Homo sapiens, T47D, 48 h
SF-539 = test: SRB anticancer assay, CNS; assay type: cell-based, human; design: Log10GI50: unit not given here
LOX IMVI = test: SRB anticancer assay, melanoma; assay type: cell-based, human; design: Log10GI50: unit not given here
K562 (Leukemia) cells = test: Cell cycle distribution by flow cytometry; assay type: cell-based
Method in brief: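 Compound-treated K562 cells analysed for cell-cycle distribution by flow cytometry; values given as % of cells.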

NCI-H522 = test: SRB anticancer assay, non-small lung; assay type: cell-based, human; design: Log10GI50: unit not given here
TK-10 = test: SRB anticancer assay, renal; assay type: cell-based, human; conditions: Homo sapiens, TK-10, 48 h
ACHN = test: SRB anticancer assay, renal; assay type: cell-based, human; design: Log10GI50: unit not given here
[2] = test system: Leukemia cancer cell lines; test: SRB anticancer assay, panel result; assay type: cell-based, human
Method in brief: (§1)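 Each compound is profiled per cell line over five or more concentrations at tenfold spacing. Exposure lasts 48 h without washout, and the sulforhodamine B method quantifies cellular protein as a growth measure.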

[3] = test system: Melanoma cancer cell lines; test: SRB anticancer assay, panel result; assay type: cell-based, human
Method in brief: as §1

Colon cancer cell lines = test: SRB anticancer assay, panel result; assay type: cell-based, human
Method in brief: as §1

CNS cancer cell lines = test: SRB anticancer assay, panel result; assay type: cell-based, human
Method in brief: as §1

[4] = test system: Ovarian cancer cell lines; test: SRB anticancer assay, panel result; assay type: cell-based, human
Method in brief: as §1

Renal cancer cell lines = test: SRB anticancer assay, panel result; assay type: cell-based, human
Method in brief: as §1

[5] = test system: Non-small cell lung cancer cell lines; test: SRB anticancer assay, panel result; assay type: cell-based, human
Method in brief: as §1

[6] = test system: Prostate cancer cell lines; test: SRB anticancer assay, panel result; assay type: cell-based, human
Method in brief: as §1

COc1cc(-c2cncn2-c2ccc(-c3nc4ccc(F)cc4s3)cc2)ccc1F [Compound 4c, 6-Fluoro-2-(4-(5-(4-fluoro-3-methoxyphenyl)-1H-imidazol-1-yl)phenyl)benzo[d]thiazole]
GI50 (IGROV1): 15.4 µM | Log10GI50 (BT-549; BT-549, present compounds): −4.94 | GI50 (BT-549; Homo sapiens, BT-549, 48 h): 7.98 µM | Log10GI50 (U251): −4.90 | GI50 (UO-31; Homo sapiens, UO-31, 48 h): 16.5 µM | Log10GI50 (UO-31; UO-31, present compounds): −4.78 | GI50 (PC-3; Homo sapiens, PC-3, 48 h): 3.47 µM | Log10GI50 (PC-3; PC-3, present compounds): −5.46 | GI50 (NCI-H226): 49.3 µM | cells in G2/M phase [1]: 18% | Log10GI50 (HL-60 (TB); HL-60(TB), present compounds): −5.60 | GI50 (HL-60 (TB); Homo sapiens, HL-60, 48 h): 2.5 µM | GI50 (UACC-62; Homo sapiens, UACC-62, 48 h): 8.67 µM | Log10GI50 (UACC-62; UACC-62, present compounds): −5.06 log10 M | GI50 (T-47D): 11.1 µM | GI50 (SF-539; Homo sapiens, SF-539, 48 h): > 100 µM | Log10GI50 (SF-539; SF-539, present compounds): −4.12 | GI50 (LOX IMVI; Homo sapiens, 48 h): 35.9 µM | Log10GI50 (LOX IMVI; present compounds): −4.44 | cells in G2/M phase (K562 (Leukemia) cells): 14% | GI50 (NCI-H522; Homo sapiens, NCI-H522, 48 h): 9.9 µM | Log10GI50 (NCI-H522; NCI-H522, present compounds): −5.00 | GI50 (TK-10): 38.8 µM | GI50 (ACHN; Homo sapiens, 48 h): 29.1 µM | Log10GI50 (ACHN; present compounds): −4.54 | LC50 ([2]; Homo sapiens, Leukemia panel, 50% net cell death, read-out: mean graph midpoint value (MG_MID) of Log10 LC50 (converted)): > 100 µM | GI50 ([2]; Homo sapiens, six leukemia cancer cell lines, exposure at least 48 h, read-out: GI50, range over the panel): 2.5 to 6.92 µM | mean graph midpoint value (MG_MID) of Log10 GI50 ([2]; Leukemia panel): −5.38 log10(mol/L) | mean graph midpoint value (MG_MID) of log10 TGI ([2]; Leukemia panel, total inhibition of net cell growth): −4.19 | LC50 ([3]; Homo sapiens, Melanoma panel, 50% net cell death, read-out: mean graph midpoint value (MG_MID) of Log10 LC50 (converted)): > 100 µM | GI50 ([3]; Homo sapiens, nine melanoma cancer cell lines, exposure at least 48 h, read-out: GI50, range over the panel): 4.11 to 39.7 µM | mean graph midpoint value (MG_MID) of Log10 GI50 ([3]; Melanoma panel): −4.82 log10(mol/L) | mean graph midpoint value (MG_MID) of log10 TGI ([3]; Melanoma panel, total inhibition of net cell growth): >−4.0 | mean graph midpoint value (MG_MID) of Log10 GI50 (Colon cancer cell lines; Colon panel): −4.71 log10(mol/L) | mean graph midpoint value (MG_MID) of log10 TGI (Colon cancer cell lines; Colon panel, total inhibition of net cell growth): −4.06 | LC50 (Colon cancer cell lines; Homo sapiens, Colon panel, 50% net cell death, read-out: mean graph midpoint value (MG_MID) of Log10 LC50 (converted)): > 100 µM | GI50 (Colon cancer cell lines; Homo sapiens, seven colon cancer cell lines, exposure at least 48 h, read-out: GI50, range over the panel): 4.36 to 82.3 µM | mean graph midpoint value (MG_MID) of Log10 GI50 (CNS cancer cell lines; CNS panel): −4.52 mol/L | mean graph midpoint value (MG_MID) of log10 TGI (CNS cancer cell lines; CNS panel, total inhibition of net cell growth): −4.05 | CC50 (CNS cancer cell lines; Homo sapiens, CNS panel, 50% net cell death, read-out: mean graph midpoint value (MG_MID) of Log10 LC50 (converted)): > 100 µM | GI50 (CNS cancer cell lines; Homo sapiens, six CNS cancer cell lines, exposure at least 48 h, read-out: GI50, range over the panel): 12.6 to 75.9 µM | LC50 ([4]; Homo sapiens, Ovarian panel, 50% net cell death, read-out: mean graph midpoint value (MG_MID) of Log10 LC50 (converted)): > 100 µM | GI50 ([4]; Homo sapiens, seven ovarian cancer cell lines, exposure at least 48 h, read-out: GI50, range over the panel): 5.71 to 30.6 µM | mean graph midpoint value (MG_MID) of Log10 GI50 ([4]; Ovarian panel): −4.62 mol/L | mean graph midpoint value (MG_MID) of log10 TGI ([4]; Ovarian panel, total inhibition of net cell growth): −4.11 | CC50 (Renal cancer cell lines; Homo sapiens, Renal panel, 50% net cell death, read-out: mean graph midpoint value (MG_MID) of Log10 LC50 (converted)): 95.5 µM | GI50 (Renal cancer cell lines; Homo sapiens, eight renal cancer cell lines, exposure at least 48 h, read-out: GI50, range over the panel): 0.0432 to 38.8 µM | mean graph midpoint value (MG_MID) of Log10 GI50 (Renal cancer cell lines; Renal panel): −4.98 log10(mol/L) | mean graph midpoint value (MG_MID) of log10 TGI (Renal cancer cell lines; Renal panel, total inhibition of net cell growth): −4.11 | LC50 ([5]; Homo sapiens, Non-small cell lung panel, 50% net cell death, read-out: mean graph midpoint value (MG_MID) of Log10 LC50 (converted)): 93.3 µM | GI50 ([5]; Homo sapiens, nine Non-small cell lung cancer cell lines, exposure at least 48 h, read-out: GI50, range over the panel): 5.47 to 49.3 µM | mean graph midpoint value (MG_MID) of Log10 GI50 ([5]; Non-small cell lung panel): −4.83 log10(M) | LC50 ([6]; Homo sapiens, Prostate panel, 50% net cell death, read-out: mean graph midpoint value (MG_MID) of Log10 LC50 (converted)): > 100 µM | GI50 ([6]; Homo sapiens, two prostate cancer cell lines (PC-3, DU-145), exposure at least 48 h, read-out: GI50, range over the panel): 3.47 to 14.3 µM | mean graph midpoint value (MG_MID) of Log10 GI50 ([6]; Prostate panel): −5.16 mol/L | mean graph midpoint value (MG_MID) of log10 TGI ([6]; Prostate panel, total inhibition of net cell growth): −4.06
